According to US20250296936A1, “SARS-COV2 MAIN PROTEASE INHIBITORS” (Gilead Sciences, Inc., priority 2024, published 2025):
pEC50: −log10 of the molar value.

test system: SARS-CoV-2-NLuc in A549-hACE2 cells; assay: microbe, parasite or virus in culture; type: cell-based, SARS Coronavirus 2; details: Severe acute respiratory syndrome coronavirus, 48 h, read-out: MPro EC50 (nM)

| SMILES | EC50 |
| --- | --- |
| N#CCCn1c(=O)n(-c2cncc3ccc(F)cc23)c(=O)c2oc(-c3ccccc3Cl)cc21 [Example 22] | 19 nM |
| Cn1c(=O)n(-c2cncc3c2CCCC3)c(=O)c2oc(-c3ccccc3Cl)cc21 [Example 34] | 960 nM |
| N#CC1(Cn2c(=O)n(-c3cncc4ccc(F)cc34)c(=O)c3oc(-c4ccccc4Cl)cc32)CC1 [Example 52] | 11.8 nM |
| Cc1cncc(-n2c(=O)c3oc(-c4ccccc4Cl)cc3n(C)c2=O)c1 [Example 35] | 726 nM |
| N#CCCn1c(=O)n(-c2cncc3ccccc23)c(=O)c2oc(-c3ccc(F)cc3Cl)cc21 [Example 25] | 41.7 nM |
| COc1cc(-c2cc3c(o2)c(=O)n(-c2cncc4cnn(C)c24)c(=O)n3CCC#N)c(Cl)cc1F [Example 17] | 20.7 nM |
| COc1ccc2cncc(-n3c(=O)[nH]c4cc(-c5ccccc5Cl)oc4c3=O)c2c1 [Example 10] | 95.6 nM |
| COc1ccc(Cl)c(-c2cc3[nH]c(=O)n(-c4cncc5ccccc45)c(=O)c3o2)c1 [Example 3] | 23.3 nM |
| N#CCn1c(=O)n(-c2cncc3ccccc23)c(=O)c2oc(-c3ccc(F)cc3Cl)cc21 [Example 46] | 58.4 nM |
| Cc1cncc(-n2c(=O)c3oc(-c4ccccc4Cl)cc3n(CCC#N)c2=O)c1 [Example 23] | 24.1 nM |
| COc1cc(-c2cc3c(o2)c(=O)n(-c2cncc4cnn(C)c24)c(=O)n3CC2(C#N)CC2)c(Cl)cc1F [Example 49] | 12.2 nM |
| Cn1ncc2cncc(-n3c(=O)c4oc(-c5ccc(F)cc5Cl)cc4n(CCC#N)c3=O)c21 [Example 24] | 71.4 nM |
| N#CCn1c(=O)n(-c2cncc3ccccc23)c(=O)c2oc(-c3ccccc3Cl)cc21 [Example 40] | 20.1 nM |
| COc1cc(-c2cc3[nH]c(=O)n(-c4cnnc(C)c4)c(=O)c3o2)c(Cl)cc1F [Example 12] | > 10000 nM |
| COc1cc(-c2cc3[nH]c(=O)n(-c4cccnn4)c(=O)c3o2)c(Cl)cc1F [Example 15] | > 10000 nM |
| Cn1c(=O)n(-c2cncc3ccccc23)c(=O)c2cc(-c3ccccc3Cl)oc21 [Example 33] | 145 nM |
| O=c1[nH]c2cc(-c3ccccc3Cl)oc2c(=O)n1-c1cncc2ccc(F)cc12 [Example 7] | 79.6 nM |
| Cc1cncc(-n2c(=O)c3oc(-c4ccccc4Cl)cc3n(CC3(C#N)CC3)c2=O)c1 [Example 53] | 12.8 nM |
| COc1cc(-c2cc3[nH]c(=O)n(-c4cncc(C)c4)c(=O)c3o2)c(Cl)cc1F [Example 56] | 195 nM |
| Cn1ncc2cncc(-n3c(=O)c4oc(-c5ccccc5Cl)cc4n(CC4(C#N)CC4)c3=O)c21 [Example 48] | 8.36 nM |

| SMILES | EC50 |
| --- | --- |
| COc1ccc2cncc(-n3c(=O)c4oc(-c5ccccc5Cl)cc4n(C)c3=O)c2c1 [Example 32] | 381 nM |
| O=c1[nH]c2oc(-c3ccccc3Cl)cc2c(=O)n1-c1cncc2ccccc12 [Example 14] | 3330 nM |
| COc1ccc2cncc(-n3c(=O)c4oc(-c5ccccc5Cl)cc4n(CC#N)c3=O)c2c1 [Example 41] | 16.6 nM |
| N#CCCn1c(=O)n(-c2cncc3ccccc23)c(=O)c2oc(-c3ccccc3Cl)cc21 [Example 19] | 13 nM |
| N#CCn1c(=O)n(-c2cncc3c2CCCC3)c(=O)c2oc(-c3ccccc3Cl)cc21 [Example 42] | 36.7 nM |
| O=c1[nH]c2oc(-c3ccccc3)nc2c(=O)n1-c1cncc2ccccc12 [Example 13] | 4240 nM |
| Cn1c(=O)n(-c2cncc3ccccc23)c(=O)c2oc(-c3ccc(F)cc3Cl)cc21 [Example 36] | 3270 nM |
| COc1ccc2cncc(-n3c(=O)c4oc(-c5ccccc5Cl)cc4n(CCC#N)c3=O)c2c1 [Example 20] | 17.1 nM |
| COc1cc(-c2cc3c(o2)c(=O)n(-c2cncc(C)c2)c(=O)n3CCC#N)c(Cl)cc1F [Example 58] | 19.9 nM |
| N#CC1(Cn2c(=O)n(-c3cncc4ccccc34)c(=O)c3oc(-c4ccc(F)cc4Cl)cc32)CC1 [Example 54] | 18 nM |
| COc1cc(-c2cc3c(o2)c(=O)n(-c2cccnn2)c(=O)n3CCC#N)c(Cl)cc1F [Example 26] | 408 nM |
| COc1ccc2cncc(-n3c(=O)c4oc(-c5ccccc5Cl)cc4n(CC4(C#N)CC4)c3=O)c2c1 [Example 51] | 12.1 nM |
| Cc1cncc(-n2c(=O)c3oc(-c4ccccc4Cl)cc3n(CC#N)c2=O)c1 [Example 45] | 52.3 nM |
| Cn1ncc2cncc(-n3c(=O)c4oc(-c5ccccc5Cl)cc4n(CC#N)c3=O)c21 [Example 38] | 88 nM |
| COc1cc(-c2cc3c(o2)c(=O)n(-c2cnnc(C)c2)c(=O)n3CCC#N)c(Cl)cc1F [Example 27] | 5250 nM |
| Cn1c(=O)n(-c2cncc3ccccc23)c(=O)c2oc(-c3ccccc3Cl)cc21 [Example 31] | 565 nM |
| COc1cc(-c2cc3c(o2)c(=O)n(-c2cncc4cnn(C)c24)c(=O)n3C)c(Cl)cc1F [Example 30] | 683 nM |
| N#CCn1c(=O)n(-c2cncc3ccc(F)cc23)c(=O)c2oc(-c3ccccc3Cl)cc21 [Example 43] | 25.3 nM |
| O=c1[nH]c2cc(-c3ccccc3Cl)oc2c(=O)n1-c1cncc2c1CCCC2 [Example 5] | 212 nM |

same assay, conditions: Severe acute respiratory syndrome coronavirus, 48 h; read-out: MPro EC50

| SMILES | pEC50 |
| --- | --- |
| COc1cc(-c2cc3c(o2)c(=O)n(-c2cncc4ccccc24)c(=O)n3C)c(Cl)cc1F [Example 28, 6-(2-chloro-4-fluoro-5-methoxy-phenyl)-3-(4-isoquinolyl)-1-methyl-furo[3,2-d]pyrimidine-2,4-dione] | 6.54 |
| COc1cc(-c2cc3c(o2)c(=O)n(-c2cncc4ccccc24)c(=O)n3CC#N)c(Cl)cc1F [Example 37, 2-(6-(2-chloro-4-fluoro-5-methoxyphenyl)-3-(isoquinolin-4-yl)-2,4-dioxo-3,4-dihydrofuro[3,2-d]pyrimidin-1(2H)-yl)acetonitrile] | 7.80 |
| COc1cc(-c2cc3c(o2)c(=O)n(-c2cncc4ccccc24)c(=O)n3CC2(C#N)CC2)c(Cl)cc1F [Example 47, 1-((6-(2-chloro-4-fluoro-5-methoxyphenyl)-3-(isoquinolin-4-yl)-2,4-dioxo-3,4-dihydrofuro[3,2-d]pyrimidin-1(2H)-yl)methyl)cyclopropane-1-carbonitrile] | 7.53 |
| COc1cc(-c2cc3c(o2)c(=O)n(-c2cncc4cccnc24)c(=O)n3CCC#N)c(Cl)cc1F [Example 57, 3-(6-(2-chloro-4-fluoro-5-methoxyphenyl)-3-(1,6-naphthyridin-8-yl)-2,4-dioxo-3,4-dihydrofuro[3,2-d]pyrimidin-1(2H)-yl)propanenitrile] | 7.71 |
| COc1cc(-c2cc3[nH]c(=O)n(-c4cncc5cccnc45)c(=O)c3o2)c(Cl)cc1F [Example 55, 6-(2-chloro-4-fluoro-5-methoxyphenyl)-3-(1,6-naphthyridin-8-yl)furo[3,2-d]pyrimidine-2,4(1H,3H)-dione] | 6.60 |
| O=c1[nH]c2cc(-c3ccccc3Cl)oc2c(=O)n1-c1cncc2ccccc12 [Example 4, 6-(2-chlorophenyl)-3-(4-isoquinolyl)-1H-furo[3,2-d]pyrimidine-2,4-dione] | 6.56 |
| COc1cc(-c2cc3c(o2)c(=O)n(-c2cncc4ccccc24)c(=O)n3CCC#N)c(Cl)cc1F [Example 16, 3-(6-(2-chloro-4-fluoro-5-methoxyphenyl)-3-(isoquinolin-4-yl)-2,4-dioxo-3,4-dihydrofuro[3,2-d]pyrimidin-1(2H1)-yl)propanenitrile] | 8.36 |
| COc1cc(-c2cc3[nH]c(=O)n(-c4cncc5ccccc45)c(=O)c3o2)c(Cl)cc1F [Example 11, 6-(2-chloro-4-fluoro-5-methoxy-phenyl)-3-(4-isoquinolyl)-1H-furo[3,2-d]pyrimidine-2,4-dione] | 7.09 |
| Cn1ncc2cncc(-n3c(=O)[nH]c4cc(-c5ccc(F)cc5Cl)oc4c3=O)c21 [Example 9] | 6.00 |

same assay, conditions: read-out: MPro EC50

| SMILES | pEC50 |
| --- | --- |
| Cn1ncc2cncc(-n3c(=O)c4oc(-c5ccccc5Cl)cc4n(CCC#N)c3=O)c21 (single isomer, unassigned) [Example 62, 3-[6-(2-chlorophenyl)-3-(1-methylpyrazolo[4,3-c]pyridin-7-yl)-2,4-dioxo-furo[3,2-d]pyrimidin-1-yl]propanenitrile] | 6.63 |
| COc1cc(-c2cc3c(o2)c(=O)n(-c2cncc4cccnc24)c(=O)n3CCC#N)c(Cl)cc1F (single isomer, unassigned) [Example 65, 3-(6-(2-chloro-4-fluoro-5-methoxyphenyl)-3-(1,6-naphthyridin-8-yl)-2,4-dioxo-3,4-dihydrofuro[3,2-d]pyrimidin-1(2H)-yl)propanenitrile] | 8.24 |
| COc1cc(-c2cc3c(o2)c(=O)n(-c2cncc4cccnc24)c(=O)n3CCC#N)c(Cl)cc1F (single isomer, unassigned) [Example 66, 3-(6-(2-chloro-4-fluoro-5-methoxyphenyl)-3-(1,6-naphthyridin-8-yl)-2,4-dioxo-3,4-dihydrofuro[3,2-d]pyrimidin-1(2H)-yl)propanenitrile] | 6.95 |
| COc1cc(-c2cc3c(o2)c(=O)n(-c2cncc4ccccc24)c(=O)n3CCC#N)c(Cl)cc1F (single isomer, unassigned) [Example 60, 3-[6-(2-chloro-4-fluoro-5-methoxy-phenyl)-3-(4-isoquinolyl)-2,4-dioxo-furo[3,2-d]pyrimidin-1-yl]propanenitrile] | 7.08 |
| COc1cc(-c2cc3c(o2)c(=O)n(-c2cncc4ccccc24)c(=O)n3CCC#N)c(Cl)cc1F (single isomer, unassigned) [Example 59, 3-[6-(2-chloro-4-fluoro-5-methoxy-phenyl)-3-(4-isoquinolyl)-2,4-dioxo-furo[3,2-d]pyrimidin-1-yl]propanenitrile] | 8.33 |
| COc1cc(-c2cc3c(o2)c(=O)n(-c2cncc4cnn(C)c24)c(=O)n3CCC#N)c(Cl)cc1F (single isomer, unassigned) [Example 64, 3-[6-(2-chloro-4-fluoro-5-methoxy-phenyl)-3-(1-methylpyrazolo[4,3-c]pyridin-7-yl)-2,4-dioxo-furo[3,2-d]pyrimidin-1-yl]propanenitrile] | 6.95 |
| Cn1ncc2cncc(-n3c(=O)c4oc(-c5ccccc5Cl)cc4n(CCC#N)c3=O)c21 (single isomer, unassigned) [Example 61, 3-[6-(2-chlorophenyl)-3-(1-methylpyrazolo[4,3-c]pyridin-7-yl)-2,4-dioxo-furo[3,2-d]pyrimidin-1-yl]propanenitrile] | 8.15 |
